Among the test systems are OVCAR-3 ovarian; MDA-MB-435; RXF 393 renal; MDA-MB-231 breast; IGROV1 ovarian; NCI-H23 lung; SK-MEL-5 melanoma; UACC-257 melanoma; DU-145 prostate; HCT-116 colon.
Common to all, as to assay: NCI-60 cell line screen, 48 h

Values joined by “and” are separate entries in the source; they are usually repeats but may differ in a detail not shown here. Equal values may be shown once.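 Test compounds were applied to cells in 96-well plates for 48 hours at 5 doses. Abbreviation: GI50, concentration required for 50% inhibition of growth. TGI marks complete inhibition of growth.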

With `O=C1C(=O)c2cccnc2-c2ncccc21`, the GI50 with OVCAR-3 ovarian was 0.193 µM; in the experiment with MDA-MB-435, 0.263 µM; in the experiment on RXF 393 renal, 0.0768 µM; in the experiment with MDA-MB-231 breast, 0.14 µM; with IGROV1 ovarian, 0.133 µM; in the experiment on NCI-H23 lung it was 0.319 µM. Also, the GI50 was 0.239 µM in the experiment with SK-MEL-5 melanoma, 0.268 µM in the experiment with UACC-257 melanoma, 0.239 µM in the experiment on DU-145 prostate and 0.0401 µM in the experiment with HCT-116 colon. For the same compound, the TGI was 0.503 µM with OVCAR-3 ovarian; 1.02 µM in the experiment with MDA-MB-435; 0.266 µM in the experiment on RXF 393 renal; 0.503 µM with MDA-MB-231 breast; 0.413 µM with IGROV1 ovarian; 1.3 µM in the experiment with NCI-H23 lung. Besides, the TGI with SK-MEL-5 melanoma was 0.801 µM; in the experiment with UACC-257 melanoma, 0.924 µM; with DU-145 prostate, 1.28 µM; with HCT-116 colon it was 0.159 µM.
Regarding `COc1cc(C2CC(c3ccc(Nc4ccnc5cc(Cl)ccc45)cc3)=NN2c2ccc(Cl)cc2)cc(OC)c1OC` (stereo not given), the GI50 in the experiment with OVCAR-3 ovarian is 1.87 µM; in the experiment on MDA-MB-435, 0.329 µM; with RXF 393 renal, 1.34 µM; in the experiment with MDA-MB-231 breast, 1.93 µM; with IGROV1 ovarian, 4.81 µM; with NCI-H23 lung it was 8.82 µM. The GI50 in the experiment on SK-MEL-5 melanoma was 2.68 µM; in the experiment on UACC-257 melanoma it was 2.72 µM; in the experiment with DU-145 prostate, 8.08 µM; with HCT-116 colon, 3.08 µM. Further, the TGI with OVCAR-3 ovarian is over 100 µM; in the experiment on MDA-MB-435, 2.05 µM; with RXF 393 renal it was 8.05 µM; in the experiment with MDA-MB-231 breast it was 27.1 µM; in the experiment with IGROV1 ovarian, over 100 µM; with NCI-H23 lung, over 100 µM. For the same compound, the TGI was 15.6 µM in the experiment on SK-MEL-5 melanoma, 36.4 µM in the experiment with UACC-257 melanoma, over 100 µM with DU-145 prostate and over 100 µM in the experiment on HCT-116 colon.
Take `C=C1CC2(OC1=O)C(=O)Nc1ccccc12` (stereo not given): the GI50 with OVCAR-3 ovarian is 1.11 µM; in the experiment on MDA-MB-435, 3.57 µM; in the experiment with RXF 393 renal, 1.45 µM; in the experiment with MDA-MB-231 breast, 4.62 µM; with IGROV1 ovarian, 2.36 µM; in the experiment on NCI-H23 lung it was 6.34 µM. For the same compound, the GI50 was 6.13 µM with SK-MEL-5 melanoma, 1.74 µM in the experiment with UACC-257 melanoma, 2.54 µM in the experiment with DU-145 prostate and 3.16 µM in the experiment on HCT-116 colon. For the same compound, the TGI with OVCAR-3 ovarian was determined as 2.77 µM; in the experiment with MDA-MB-435, 14.9 µM; in the experiment with RXF 393 renal, 2.9 µM; in the experiment with MDA-MB-231 breast it was 17 µM; in the experiment with IGROV1 ovarian it was 7.72 µM; in the experiment on NCI-H23 lung, 23.1 µM. Further, the TGI was found to be 18.8 µM with SK-MEL-5 melanoma, 4.24 µM in the experiment on UACC-257 melanoma, 8.47 µM with DU-145 prostate and 10.5 µM in the experiment with HCT-116 colon.
On to `COc1cccc(/C=N/C(/N=C/c2cccc(OC)c2O)c2cccc(OC)c2O)c1O`, for which the TGI was 62.4 µM in the experiment with OVCAR-3 ovarian; over 100 µM in the experiment on MDA-MB-435; 29.2 µM in the experiment with RXF 393 renal; over 100 µM in the experiment with MDA-MB-231 breast; 62.8 µM with IGROV1 ovarian; over 100 µM in the experiment with NCI-H23 lung. Besides, the TGI was 35.1 µM in the experiment with SK-MEL-5 melanoma, 58.9 µM in the experiment on UACC-257 melanoma, 78.7 µM with DU-145 prostate and over 100 µM with HCT-116 colon.
Regarding `COc1cc2c(cc1OC)C13CCN4CC5CCOC6CC(=O)N2C1C6C5CC43` (stereo not given), the TGI with OVCAR-3 ovarian, in the experiment on MDA-MB-435, in the experiment with RXF 393 renal, with MDA-MB-231 breast, with IGROV1 ovarian and with NCI-H23 lung was over 100 µM throughout. Moreover, the TGI with SK-MEL-5 melanoma, in the experiment with UACC-257 melanoma, in the experiment on DU-145 prostate and in the experiment with HCT-116 colon was over 100 µM each time.
Turning to `CN(C)CCNC(=O)c1ccc(NC(=O)c2nc([N+](=O)[O-])cn2C)cc1`, the TGI with OVCAR-3 ovarian, in the experiment on MDA-MB-435, in the experiment on RXF 393 renal, with MDA-MB-231 breast, in the experiment with IGROV1 ovarian and in the experiment on NCI-H23 lung was over 100 µM in each case. Further, the TGI with SK-MEL-5 melanoma, with UACC-257 melanoma, in the experiment with DU-145 prostate and in the experiment with HCT-116 colon was over 100 µM in each case.
On to `Cc1cn(-c2cc(NC(=O)c3ccc(C)c(Nc4nccc(-c5cccnc5)n4)c3)cc(C(F)(F)F)c2)cn1`, for which the GI50 in the experiment with OVCAR-3 ovarian was 5.77 µM and 4.38 µM; with MDA-MB-435, 1.79 µM and 1.57 µM; with RXF 393 renal, 2.59 µM and 2.01 µM; with MDA-MB-231 breast, 3.68 µM and 1.81 µM; in the experiment on IGROV1 ovarian, 2.23 µM and 1.83 µM; in the experiment on NCI-H23 lung it was 7.35 µM and 6.5 µM. Further, the GI50 in the experiment on SK-MEL-5 melanoma was 1.73 µM; in the experiment on UACC-257 melanoma, 4.46 µM and 2.49 µM; with DU-145 prostate, 3.25 µM and 2.34 µM; with HCT-116 colon, 4.26 µM and 2.06 µM. Moreover, the TGI with OVCAR-3 ovarian is > 10 µM and 11.5 µM; in the experiment on MDA-MB-435, 4.65 µM and 4.76 µM; in the experiment on RXF 393 renal, 6.54 µM and 4.12 µM; in the experiment on MDA-MB-231 breast it was > 10 µM and 14.3 µM; in the experiment on IGROV1 ovarian, 5.06 µM and 4.2 µM; in the experiment with NCI-H23 lung it was > 10 µM and 30 µM. In addition, the TGI in the experiment on SK-MEL-5 melanoma is 7.01 µM; in the experiment with UACC-257 melanoma it was > 10 µM and 7.97 µM; in the experiment with DU-145 prostate, > 10 µM and 4.47 µM; in the experiment on HCT-116 colon it was > 10 µM and 7.79 µM.
Take `CN(Cc1cc(C(C)(C)C)cc(Br)c1O)Cc1cc(C(C)(C)C)cc(Br)c1O`: the TGI in the experiment with OVCAR-3 ovarian came out at 6.73 µM; in the experiment on MDA-MB-435, 15.9 µM; in the experiment on RXF 393 renal, 7.98 µM; in the experiment on MDA-MB-231 breast, 6.91 µM; in the experiment on IGROV1 ovarian, 13.5 µM; with NCI-H23 lung it was 9.88 µM. Moreover, the TGI in the experiment on SK-MEL-5 melanoma was found to be 7.76 µM; with UACC-257 melanoma, 5.85 µM; with DU-145 prostate, 19.3 µM; in the experiment on HCT-116 colon, 9.46 µM.

These data come from PubChem BioAssay (NCI).
